Assay results: patent US4062948A, “Dihydromocimycin antibiotics” (Gist-Brocades N.V., priority 1970, dated 1977)
Counter-ions that a name gives are not always drawn.

Tests used:
Assay type in all cases: in vivo
[1] = growth promotion in slaughter chickens (Example II); settings: control = 100
From the text: Slaughter chickens are given mocimycin in the form of the sodium salt obtained in Example 1, in a mixture with component of the feed (wheat flour), the amount of antibiotic in the feed (based on the weight of the feed) being as specified in the following Table, which gives the weight of the chickens after 3, 5 and 7 weeks.

[2] = growth promotion in pigs (Example III); settings: control = 100
Protocol: The sodium salt of mocimycin as obtained in Example I, was pre-mixed with wheat flour which mixture, added to the feed, was administered to pigs. The amount of the antibiotic present in the feed (based on the weight of the feed) is given hereinbelow in Table VII, in which the average relative weights of the pigs after 6 and 12 weeks, respectively are given.

[3] = system: microorganism causing Treponema dysentery; test: pigs infected with Treponema dysentery (Example VI)
From the text: Twenty pigs, 3 months old, were infected with the microorganism causing Treponema dysentery by administering to them feed mixed with a homogenous mixture of contents of the intestines and intestinal mucous membranes of two animals suffereing from the disease. The infected pigs were divided into four groups of five animals each and the animals were fed with the feed as a slurry diluted 1:1 with water for 1 week. The total amount of feed per animal was 1.2 kg each day and was given in two portions.
After 5 days, the first symptoms of the disease were observed from the thin faeces and confirmed by a microbiological investigation of the faeces and […] a week, the animals were treated as follows:
group 2: 100 ppm of tylosin were added to the feed;
group 3: 25ppm of dihydromocimycin were added to the feed; and
group 4: 50 ppm of dihydromocimycin were added to the feed.
The antibiotic-enriched feed was administered for a week. After that week, feed without any antibiotic was given again. Recovery from the infection was observed from the weights of the animals and from inspection samples of the faeces, macroscopically from their consistencies, and microscopically by means of a specific immuno-fluoroescence technique. During the test, one animal of each of groups 1, 3 and 4 died.
The results are shown in the following Table wherein the weights indicated are the averages at that time of the still living animals. The consistency of the faeces is indicated as follows:
+ means thin liquid; ± means thick liquid; - means normal. The results of the immuno-fluorescence technique are indicated quantitatively by indicating the number of Treponemas in the visual field: 5 means very crowded; 4 means many; 3 means about 10 Treponemas; 2 means 1 or 2 Treponemas, 1 means more visual fields necessary to find one Treponema, and - means negative.

Question: Which results are given for `CC=CC=CC1OC(O)(C(CC)C(=O)NCC=CC=C(C)C(OC)C(C)C2OC(C=CC=CC=C(C)C(=O)c3c(O)cc[nH]c3=O)C(O)C2O)C(O)C(O)C1(C)C` (stereo not drawn) [sodium salt of mocimycin]?
Answer: weight of chickens relative to control (control = 100) ([1]; 5 ppm in feed, 3 weeks): 104%; weight of chickens relative to control (control = 100) ([1]; 5 ppm in feed, 5 weeks): 103%; weight of chickens relative to control (control = 100) ([1]; 5 ppm in feed, 7 weeks): 103%; weight of chickens relative to control (control = 100) ([1]; 10 ppm in feed, 3 weeks): 107%; weight of chickens relative to control (control = 100) ([1]; 10 ppm in feed, 5 weeks): 105%; weight of chickens relative to control (control = 100) ([1]; 10 ppm in feed, 7 weeks): 104%; weight of chickens relative to control (control = 100) ([1]; 20 ppm in feed, 3 weeks): 109%; weight of chickens relative to control (control = 100) ([1]; 20 ppm in feed, 5 weeks): 107%; weight of chickens relative to control (control = 100) ([1]; 20 ppm in feed, 7 weeks): 105%; feed conversion ([2]; 5 ppm in feed, 6 weeks): 95; growth (average relative weight) ([2]; 5 ppm in feed, 6 weeks): 107; feed conversion ([2]; 5 ppm in feed, 12 weeks): 98; growth (average relative weight) ([2]; 5 ppm in feed, 12 weeks): 104.5; feed conversion ([2]; 10 ppm in feed, 6 weeks): 92.5; growth (average relative weight) ([2]; 10 ppm in feed, 6 weeks): 108.5; feed conversion ([2]; 10 ppm in feed, 12 weeks): 99; growth (average relative weight) ([2]; 10 ppm in feed, 12 weeks): 104

Question: Which results are given for `CC[C@H]1OC(=O)C[C@@H](O)[C@H](C)[C@@H](O[C@@H]2O[C@H](C)[C@@H](O[C@H]3C[C@@](C)(O)[C@@H](O)[C@H](C)O3)[C@H](N(C)C)[C@H]2O)[C@@H](CC=O)C[C@@H](C)C(=O)/C=C/C(C)=C/[C@@H]1CO[C@@H]1O[C@H](C)[C@@H](O)[C@@H](OC)[C@H]1OC` [tylosin, reference compound]?
Answer: Weights ([3]; tylosin 100 ppm group, after 1 week (start of antibiotics)): 22.2 kg; Weights ([3]; tylosin 100 ppm group, just before infection (baseline)): 24.4 kg; Weights ([3]; tylosin 100 ppm, after 2 weeks): 21.4 kg; Weights ([3]; tylosin 100 ppm, after 3 weeks): 23.2 kg
